{
  "source": "patent US20260284016A1",
  "about": "“COMBINATIONS AND METHODS FOR ENHANCING CHECKPOINT INHIBITOR THERAPIES IN CANCER TREATMENT” (PURDUE RESEARCH FOUNDATION, priority 2004, published 2026)",
  "key": {"[1]": {"experiment": "Stability during incubation in culture media", "assay_type": "physicochemical", "details": "37° C. in the culture media, 48 hours", "protocol": "Indeed, Compound 1B retained the original structure after 48 hours incubation."}, "[2]": {"system": "M2-induced THP-1 macrophages", "experiment": "Reprogramming of M2-polarized THP-1 macrophages, marker mRNA by qPCR", "assay_type": "cell-based, human", "protocol": "THP-1 cells were seeded into 96-well plates at a density of 60,000 cells/well. Cells were differentiated into unpolarized macrophages by 48 hours incubation with 200 nM PMA followed by 24 hours incubation in fresh RPMI medium. […] Cultures were maintained at 37° C., in a humidified 5% CO2 incubator.\nTotal RNA was isolated from 1×10^5-2×10^5 macrophages using a Quick-RNA™ MicroPrep kit (Zymo Research, Irvine, CA) according to the manufacturer-recommended protocol. The RNA samples were then reverse-transcribed into cDNA using high-capacity cDNA reverse transcription kits (Applied Biosystems, Foster City, CA; #4368814), qPCR analyses were performed using the iTaq™ Universal SYBR Green SuperMix (Bio-Rad Laboratories GmbH, Hercules, CA; #1725121), iCycler thermocycler, and iCycler iQ 3.0 software (Bio-Rad Laboratories GmbH, Hercules, CA) to track the expression of markers characteristic of macrophage polarization states, IL-6, CXCL10, IFNα, IFN-γ and CD86 were used as markers for an M1 phenotype, while CCL18. CD206, CD163 and Arg1 were employed as markers for the M2 phenotype, IL-1β, PDGFβ, MMP9 and TIMP 3 were measured as indicators of an anti-inflammatory phenotype. IRAK-4 was used as an indicator of TLR7 stimulation. To control for specificity of the amplification products, a melting curve analysis was performed. […] Each sample was analyzed independently in triplicate for each marker.\nIn both data sets, the cells were harvested for gene analysis by qPCR.\nPrimarily, human monocytic (THP-1) cells were induced to the M2-like phenotype using the methods and materials previously described. In particular, THP-1 cells were seeded into 96-well plates at a density of 60,000 cells/well. Cells were differentiated into unpolarized macrophages by 48 h incubation with 200 nM PMA followed by 24 hours incubation in fresh RPMI medium. The resulting macrophages were polarized to an M2-like phenotype by incubation with […] IL-4, 20 ng/ml […], and 5 ng/mL IL-6 for 48h. Cultures were maintained at 37° C. in a humidified 5% CO2 incubator.\nIn addition to the nonconjugated TLR7 agonist, conjugated compounds of the present disclosure were likewise evaluated. Human THP-1 cells were induced to macrophages having the M2-like phenotype per the methods set forth herein (e.g., using 20 ng/mL IL-4, 20 ng/mL IL-13, 5 ng/mL IL-6), then reprogrammed with different nM concentrations of various compounds of the present disclosure for 2 hours; namely, a nonconjugated (free drug) TLR7 agonist compound having formula I and/or II (data shown collectively as Compound 3A), a folate-conjugated TLR7 agonist compound having formula XV (having a releasable linker) (e.g., Compound 3B), a folate-conjugated TLR7 agonist compound having formula XVII (having a non-releasable linker) (e.g., Compound 3C), and a folate-conjugated TLR7 agonist compound having formula XVI (having a non-releasable linker) (e.g., Compound 3D). The cells were subsequently harvested for gene analysis by qPCR and the relative expression of CCL18 (FIG. 14A), CD206 (FIG. 14B), and IL-1β (FIG. 14C) analyzed."}, "[3]": {"system": "BM-induced mice", "experiment": "Bleomycin-induced pulmonary fibrosis, markers in bronchoalveolar lavage cells and fluid", "assay_type": "in vivo, C57BL/6 mice", "protocol": "Fresh water and folate-deficient diet were freely available.\nAfter 2 hours, mice were sacrificed using CO2 asphyxiation and an incision in the skin from the abdomen to neck was immediately made to expose the lungs and trachea. A small cut in the upper trachea was then introduced for insertion of a blunted, 22-gauge needle, and a nylon string was tied around the trachea to seal the trachea around the needle. The trachea (containing the inserted needle), lungs and heart were then removed en masse by carefully cutting the connective tissue beneath the lungs, and the bronchus of left lung was clipped with a Dieffenbach vessel clip. The right lung was injected with PBS and aspirated 3 times using a 1 ml syringe, and the recovered lavage fluid was saved on ice.\nBronchoalveolar lavage fluid (BALF) was then analyzed to determine how the targeted TLR7 agonist works. BALF samples were centrifuged at 1500 rpm for 5 min at 4° C., and the supernatant was aliquoted and stored at −80° C., for cytokine/chemokine analyses. Cell pellets were resuspended and cultured in pre-warmed RPMI 1640 medium for 2 hours and then washed 3x with pre-warmed PBS prior to harvesting for qPCR assay. The right lung was then tied with a nylon string and used for subsequent analysis of hydroxyproline content. The left lung was inflated with 1 ml PBS using the inserted syringe and transferred to 10% formalin solution for subsequent histological analyses.\nCCL18 and IL-1β were quantified in induced THP-1 cell supernatants using a human DuoSet ELISA Development System (R&D Systems Europe, Abingdon, UK: #DY394-05) and an IL-1 beta Human ELISA Kit (Thermo Fisher Scientific, Waltham, MA; #BMS224-2) as described by manufactures. BALF samples were analyzed for mouse IFN-γ using ELISA MAX™ Deluxe (Biolegend, San Diego, CA; #430804)."}, "[4]": {"system": "healthy mice", "experimental": "(FIGS. 20A-C) Measurement of plasma IL-6 (FIG. 20A), IFNα (FIG. 20B) and TNFα (FIG. 20C) (n=3). […] The effect of drug concentration on plasma levels of IL-6 (FIG. 20D), IFNα (FIG. 20E), and TNFα (FIG. 20F) was determined at 1.5 hours, 1 hour, or 1 hour after treatment, respectively (n=2) (FIG. 20G).\nThe effect of drug on plasma levels of IL-6 (FIG. 23C) and TNFα (FIG. 23D) was determined at 1 hour or 1.5 hours after treatment."}, "[5]": {"details": "2 hours with drug, then drug-free medium"}, "[6]": {"details": "dosing every other day from day 10, BALF day 21"}},
  "data": [
    {"smiles": "CCCCc1nc2c(N)nc3ccccc3c2n1CC(C)(C)OC(=O)OCCSSCC(NC(=O)CCC(NC(=O)c1ccc(NCc2cnc3nc(N)[nH]c(=O)c3n2)cc1)C(=O)O)C(=O)O", "note": "(stereo not shown) [Compound 1B]", "values": [
      {"measurement": "stability during incubation", "setting": "[1]", "value": "remained stable"},
      {"measurement": "anti-inflammatory/M2-type markers (CCL18, CD206, IL-1β, PDGFβ mRNA)", "setting": "[2]; 2 hours incubation, harvested at once or after further 46 hours", "value": "downregulated anti-inflammatory/M2-type markers of macrophages more than Compound 1A"},
      {"measurement": "TNFα induction", "setting": "[2]; [5]", "value": "dramatically improved"},
      {"measurement": "potency in reprogramming", "setting": "[2]; [5]", "value": "superior potency relative to Compound 1A"},
      {"measurement": "total number of BALF cells", "setting": "[3]; different doses of Compound 1B", "value": "decreased in a dose-dependent manner"},
      {"measurement": "Arg1 (qPCR, lavage macrophages)", "setting": "[3]; [6]", "value": "suppressed"},
      {"measurement": "CD86 transcripts (qPCR)", "setting": "[3]; [6]", "value": "elevated"},
      {"measurement": "IFN-γ concentration (ELISA of lavage fluid)", "setting": "[3]; [6]", "value": "elevated"},
      {"measurement": "IRAK-4", "setting": "[3]; [6]", "value": "upregulation"},
      {"measurement": "MMP9 (qPCR, lavage macrophages)", "setting": "[3]; [6]", "value": "suppressed"},
      {"measurement": "TIMP 3 (qPCR, lavage macrophages)", "setting": "[3]; [6]", "value": "suppressed"},
      {"measurement": "systemic cytokine release (plasma IL-6, IFNα, TNFα)", "setting": "[4]; 10 nmol tail vein", "value": "does not"},
      {"measurement": "inflammatory cytokine release, dose comparison", "setting": "[4]; plasma at 1 or 1.5 hours, varied dose", "value": "stimulates less inflammatory cytokine release than half the dose of Compound 1A"}
    ]}
  ]
}
